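Following 48 hours of exposure in 96-well plates, responses at five concentrations were used to interpolate endpoints linearly. Abbreviation: GI50, concentration required for 50% inhibition of growth. TGI marks complete inhibition of growth.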
Key:
Assay in all cases: NCI-60 cell line screen, 48 h
[1] = tested on: SW-620 colon
[2] = tested on: SK-OV-3 ovarian
[3] = tested on: NCI-H226 lung
[4] = tested on: UO-31 renal
[5] = tested on: HT29 colon
[6] = tested on: SR leukemia
[7] = tested on: OVCAR-5 ovarian
[8] = tested on: K-562 leukemia
[9] = tested on: HCC-2998 colon
[10] = tested on: SF-295 CNS
[11] = tested on: MOLT-4 leukemia
[12] = tested on: SK-MEL-5 melanoma
[13] = tested on: HCT-15 colon
[14] = tested on: SNB-19 CNS
[15] = tested on: UACC-62 melanoma
[16] = tested on: A549 NSCLC
[17] = tested on: OVCAR-4 ovarian
[18] = tested on: EKVX NSCLC
[19] = tested on: TK-10 renal
[20] = tested on: KM12 colon
[21] = tested on: SF-539 CNS
[22] = tested on: COLO 205 colon
[23] = tested on: MDA-MB-435
[24] = tested on: A498 renal
[25] = tested on: LOX IMVI melanoma
[26] = tested on: HCT-116 colon
[27] = tested on: OVCAR-8 ovarian
[28] = tested on: DU-145 prostate
[29] = tested on: MCF7 breast
[30] = tested on: RXF 393 renal
[31] = tested on: HL-60(TB) leukemia
[32] = tested on: NCI/ADR-RES ovarian
[33] = tested on: M14 melanoma
[34] = tested on: U251 CNS
[35] = tested on: ACHN renal
[36] = tested on: SK-MEL-28 melanoma
[37] = tested on: HOP-92 NSCLC
[38] = tested on: CCRF-CEM leukemia
[39] = tested on: UACC-257 melanoma
[40] = tested on: 786-0 renal
[41] = tested on: IGROV1 ovarian
[42] = tested on: OVCAR-3 ovarian
[43] = tested on: SK-MEL-2 melanoma
[44] = tested on: NCI-H23 lung
[45] = tested on: CAKI-1 renal
[46] = tested on: SNB-75 CNS
[47] = tested on: RPMI-8226 leukemia
[48] = tested on: MDA-MB-231 breast
[49] = tested on: HOP-62 NSCLC
[50] = tested on: NCI-H522 lung
[51] = tested on: SN12C renal
[52] = tested on: BT-549 breast
[53] = tested on: NCI-H460 lung
[54] = tested on: MALME-3M melanoma
[55] = tested on: PC-3 prostate
[56] = tested on: T-47D breast
[57] = tested on: SF-268 CNS

Structure (SMILES): O=c1c2ccccc2ncn1COCc1ccccc1
- TGI [1]: > 100 µM
- TGI [2]: > 100 µM
- TGI [3]: > 100 µM
- TGI [4]: > 100 µM
- TGI [5]: > 100 µM
- TGI [6]: > 100 µM
- TGI [7]: > 100 µM
- TGI [8]: > 100 µM
- TGI [9]: > 100 µM
- TGI [10]: > 100 µM
- TGI [11]: > 100 µM
- TGI [12]: > 100 µM
- TGI [13]: > 100 µM
- TGI [14]: > 100 µM
- TGI [15]: > 100 µM
- TGI [16]: > 100 µM
- TGI [17]: > 100 µM
- TGI [18]: > 100 µM
- TGI [19]: > 100 µM
- TGI [20]: > 100 µM
- TGI [21]: > 100 µM
- TGI [22]: > 100 µM
- TGI [23]: > 100 µM
- TGI [24]: > 100 µM
- TGI [25]: > 100 µM
- TGI [26]: > 100 µM
- TGI [27]: > 100 µM
- TGI [28]: > 100 µM
- TGI [29]: > 100 µM
- TGI [30]: > 100 µM
- TGI [31]: > 100 µM
- TGI [32]: > 100 µM
- TGI [33]: > 100 µM
- TGI [34]: > 100 µM
- TGI [35]: > 100 µM
- TGI [36]: > 100 µM
- TGI [37]: > 100 µM
- TGI [38]: > 100 µM
- TGI [39]: > 100 µM
- TGI [40]: > 100 µM
- TGI [41]: > 100 µM
- TGI [42]: > 100 µM
- TGI [43]: > 100 µM

Structure (SMILES): COc1nc2c(c(=O)[nH]1)N=C(c1ccccc1)CC(c1ccccc1)N2 (stereo not given)
- TGI [1]: > 100 µM
- TGI [44]: > 100 µM
- TGI [45]: > 100 µM
- TGI [2]: > 100 µM
- TGI [46]: 52.5 µM
- TGI [3]: > 100 µM
- TGI [4]: > 100 µM
- TGI [5]: > 100 µM
- TGI [47]: 75 µM
- TGI [7]: > 100 µM
- TGI [48]: 81.6 µM
- TGI [49]: > 100 µM
- TGI [8]: 60.3 µM
- TGI [9]: > 100 µM
- TGI [10]: > 100 µM
- TGI [11]: 96.9 µM
- TGI [50]: > 100 µM
- TGI [12]: > 100 µM
- TGI [14]: > 100 µM
- TGI [15]: > 100 µM
- TGI [16]: > 100 µM
- TGI [17]: 81.4 µM
- TGI [18]: > 100 µM
- TGI [20]: > 100 µM
- TGI [51]: > 100 µM
- TGI [21]: > 100 µM
- TGI [22]: > 100 µM
- TGI [23]: > 100 µM
- TGI [52]: > 100 µM
- TGI [24]: > 100 µM
- TGI [53]: > 100 µM
- TGI [25]: > 100 µM
- TGI [54]: > 100 µM
- TGI [26]: > 100 µM
- TGI [27]: > 100 µM
- TGI [28]: > 100 µM
- TGI [29]: > 100 µM
- TGI [30]: 71.7 µM
- TGI [32]: > 100 µM
- TGI [33]: > 100 µM
- TGI [34]: > 100 µM
- TGI [35]: > 100 µM
- TGI [36]: > 100 µM
- TGI [37]: > 100 µM
- TGI [55]: > 100 µM
- TGI [38]: > 100 µM
- TGI [39]: > 100 µM
- TGI [40]: > 100 µM
- TGI [41]: > 100 µM
- TGI [42]: > 100 µM
- TGI [43]: > 100 µM

Structure (SMILES): Cc1cccc2c(=O)c3c(sc12)c(NCCCN)nc1ccccc13
- GI50 [56]: 1.5 µM
- TGI [56]: 3.44 µM
- GI50 [1]: 1.19 µM
- TGI [1]: 2.66 µM
- GI50 [44]: 1.76 µM
- TGI [44]: 3.5 µM
- GI50 [45]: 1.18 µM
- TGI [45]: 2.47 µM
- GI50 [46]: 1.02 µM
- TGI [46]: 2.31 µM
- GI50 [4]: 1.06 µM
- TGI [4]: 2.29 µM
- GI50 [47]: 1.77 µM
- TGI [47]: 3.88 µM
- GI50 [7]: 1.56 µM
- TGI [7]: 3.03 µM
- GI50 [48]: 1.52 µM
- TGI [48]: 3.03 µM
- GI50 [49]: 1.24 µM
- TGI [49]: 2.79 µM
- GI50 [9]: 1.67 µM
- TGI [9]: 3.39 µM
- GI50 [10]: 1.75 µM
- TGI [10]: 3.29 µM
- GI50 [11]: 1.35 µM
- TGI [11]: 3.06 µM
- GI50 [50]: 1.57 µM
- TGI [50]: 3.34 µM
- GI50 [12]: 1.74 µM
- TGI [12]: 3.18 µM
- GI50 [13]: 1.35 µM
- TGI [13]: 2.84 µM
- GI50 [15]: 1.6 µM
- TGI [15]: 3.06 µM
- GI50 [16]: 0.88 µM
- TGI [16]: 2.45 µM
- GI50 [17]: 1.58 µM
- TGI [17]: 3.25 µM
- GI50 [18]: 1.58 µM
- TGI [18]: 3.14 µM
- GI50 [20]: 1.65 µM
- TGI [20]: 3.21 µM
- GI50 [51]: 1.47 µM
- TGI [51]: 2.93 µM
- GI50 [21]: 1.69 µM
- TGI [21]: 3.09 µM
- GI50 [22]: 1.56 µM
- TGI [22]: 3.23 µM
- GI50 [23]: 1.69 µM
- TGI [23]: 3.17 µM
- GI50 [52]: 2.6 µM
- TGI [52]: 12.6 µM
- GI50 [24]: 1.88 µM
- TGI [24]: 5.64 µM
- GI50 [53]: 0.825 µM
- TGI [53]: 2.25 µM
- GI50 [25]: 1.46 µM
- TGI [25]: 2.98 µM
- GI50 [54]: 1.61 µM
- TGI [54]: 3.09 µM
- GI50 [26]: 1.48 µM
- TGI [26]: 2.91 µM
- GI50 [28]: 1.39 µM
- TGI [28]: 2.78 µM
- GI50 [29]: 1.11 µM
- TGI [29]: 2.57 µM
- GI50 [30]: 1.48 µM
- TGI [30]: 2.87 µM
- GI50 [31]: 1.71 µM
- TGI [31]: 3.34 µM
- GI50 [33]: 1.58 µM
- TGI [33]: 3.13 µM
- GI50 [34]: 1.51 µM
- TGI [34]: 3.01 µM
- GI50 [35]: 1.39 µM
- TGI [35]: 2.71 µM
- GI50 [36]: 1.89 µM
- TGI [36]: 3.41 µM
- GI50 [37]: 1.53 µM
- TGI [37]: 5.12 µM
- GI50 [57]: 1.53 µM
- TGI [57]: 3.17 µM
- GI50 [55]: 1.37 µM
- TGI [55]: 3.04 µM
- GI50 [38]: 1.32 µM
- TGI [38]: 3.13 µM
- GI50 [39]: 1.76 µM
- TGI [39]: 3.46 µM
- GI50 [40]: 1.69 µM
- TGI [40]: 3.28 µM
- GI50 [41]: 1.18 µM
- TGI [41]: 2.63 µM
- GI50 [42]: 1.68 µM
- TGI [42]: 3.16 µM
- GI50 [43]: 1.85 µM
- TGI [43]: 3.65 µM
